Source: patent publication US20240391923A1, “METHIONINE ADENOSYLTRANSFERASE 2A INHIBITOR FOR TREATING MTAP DELETION-TYPE CANCER” (SUZHOU GENHOUSE BIO CO., LTD., priority 2022, published 2024)
Like-named read-outs stand apart in the source and are kept apart here.

Experiments:
[1] = Metabolic stability test in hepatocytes, mouse; format: in vitro ADME; details: hepatocytes (suspension), Table 5: metabolic stability in hepatocytes, up to 90 min, read-out: Metabolic half-life in mouse liver microsome (T½, min)
Method: (§1) This experimental example was used to test the metabolic stability of the compounds in hepatocytes.
(§2) A suspension of hepatocytes was prepared at 0.5×10^6/mL with a pre-heated medium, then 198 μL of the pre-heated cell suspension was added to a 96-well plate. To each well of the 96-well plate, 2 μL of the test compound was added so that the final concentration was 1 μM, and 2 replicate wells were set. For the T=0 min sample, the compound was mixed well with the cells for 1 min, then […] was immediately added to 125 μL of a stop solution (an acetonitrile solution containing 200 ng/mL tolbutamide and 200 ng/mL labetalol) under an ice bath and mixed well. At the same time, all the plates were placed in an incubator at 37° C. with 5% CO2, with the shaker set at 600 rpm. The sample was mixed well at 15, 30, 60, and 90 min of incubation, respectively, and 25 μL of the sample was added to 125 μL of a stop solution (an acetonitrile solution containing 200 ng/mL tolbutamide and 200 ng/mL labetalol) under an ice bath, mixed well, and shaken at 500 rpm for 10 min. Subsequently, the plate was centrifuged for 20 min at 3220×g at 4° C. After the centrifugation was completed, 80 μL of the supernatant from each well was transferred to another 96-well plate containing 240 μL of ultrapure water. Subsequently, analysis was carried out using LC-MS/MS, and intrinsic clearance (CLint) and half-life (T½) were calculated.

[2] = tested on: HCT116-MTAP-knockout (−/−) cell strain; test: Tumor cell proliferation inhibition assay (CellTiter-Glo), HCT116-MTAP-knockout (-/-); format: cell-based; details: Homo sapiens, 120 h, HCT116-MTAP-knockout (−/−) cells, 5-day treatment
Outline: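 Cells seeded, then after 24 h treated with 10-point 1:3 dilutions from 10 μM top concentration, DMSO control. Cultured 5 days at 37 °C/5% CO2; growth inhibition from ATP level by CellTiter-Glo luminescence.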

[3] = tested on: SDMA in human colon cancer cell line HCT116; test: Cell symmetric dimethylarginine (SDMA) test, In-cell Western, HCT116 (MTAP wild-type); format: cell-based; details: Homo sapiens, HCT-116, 96 h
Outline: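 HCT116 cells treated 4 days at 37° C with compound, top concentration 6 μM, 1:4 dilutions, 6 points, versus DMSO. Fixed cells stained for SDMA with DRAQ5 normalisation; 800/700 nm ratio after background subtraction fitted by non-linear regression for IC50.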

[4] = Metabolic stability test in hepatocytes, rat; format: in vitro ADME; details: hepatocytes (suspension), Table 5: metabolic stability in hepatocytes, up to 90 min, read-out: Metabolic half-life in rat liver microsome (T½, min)
Method: as §1, §2

[5] = Stability test in liver microsomes, mouse; format: in vitro ADME, CD-1 mice; details: CD-1; mouse liver microsomes 0.5 mg/mL, 1.0 μM substrate, up to 60 min; read-out: Metabolic half-life in mouse liver microsome (T½, min)
[6] = Stability test in liver microsomes, human; format: in vitro ADME, humans; details: human liver microsomes 0.5 mg/mL, 1.0 μM substrate, up to 60 min; read-out: Metabolic half-life in human liver microsome ( T1/2, min)
[7] = IC50 score, read-out: Tumor cell 5-day relative growth inhibition (HCT116-MTAP−/−) (nM), score
[8] = IC50 value, read-out: Tumor cell 5-day relative growth inhibition (HCT116-MTAP−/−)
[9] = IC50 score class, read-out: Cell 96 h SDMA Inhibition (HCT116-MTAP+/+) (score)
[10] = read-out: Cell 96 h SDMA inhibition (HCT116-MTAP+/+)

| Structure (SMILES) | half-life at 1 μM [1] [min] | IC50 [2, 7] [nM] | IC50 [2, 8] [nM] | IC50 [3, 9] [nM] | IC50 [3, 10] [nM] | half-life at 1 μM [4] [min] | half-life at 1 μM [5] [min] | half-life at 1 μM [6] [min] |
| --- | --- | --- | --- | --- | --- | --- | --- | --- |
| Cc1ncccc1-n1c(=O)c2nn(C)cc2c2ccc(C(F)(F)F)nc21 (single isomer, unassigned) [Compound B180] | 47.1 | < 500 | 9.6 | < 200 | 99.2 | 51.1 | – | – |
| Cn1cc2c(n1)c(=O)n(-c1cccnc1)c1cc(Cl)ccc21 [Compound B12] | 68.8 | < 500 | 383 | 1000 to 3000 | 1420 | – | > 145 | > 145 |
| Cn1cc2c(n1)c(=O)n(-c1cccc3[nH]ncc13)c1cc(Cl)ccc21 [Compound B60] | – | < 500 | 12.6 | 200 to 1000 | 467 | – | > 145 | 722 |
| Cn1cc2c(n1)c(=O)n(-c1cccc(O)c1)c1nc(C(F)(F)F)ccc21 [Compound B148] | 14.9 | – | – | 1000 to 3000 | 1030 | 50.9 | 120 | > 145 |
| O=c1c2n[nH]cc2c2ccc(C(F)(F)F)nc2n1-c1cccnc1 [Compound B178] | – | < 500 | 59.1 | 1000 to 3000 | 1060 | – | – | – |
| Cn1cc2c(n1)c(=O)n(-c1cccc3[nH]ncc13)c1nc(C(F)(F)F)ccc21 [Compound B181] | 91.1 | < 500 | 14.6 | 200 to 1000 | 480 | – | > 145 | > 145 |
| Cn1cc2c(n1)c(=O)n(-c1ccccc1Cl)c1nc(C(F)(F)F)ccc21 [Compound B182] | – | 500 to 2000 | 1860 | > 3000 | > 3000 | – | 136 | 258 |
| Cn1cc2c(n1)c(=O)n(-c1cccc3[nH]ncc13)c1cc(Cl)c(F)cc21 [Compound B257] | – | < 500 | 27.5 | 1000 to 3000 | 2160 | – | – | – |
| Cn1cc2c(n1)c(=O)n(-c1cccc3[nH]ncc13)c1cc(Cl)c(C#N)cc21 [Compound B258] | – | < 500 | 235 | > 3000 | > 10000 | – | – | – |
| Cn1cc2c(n1)c(=O)n(-c1cccnc1C1CC1)c1cc(Cl)c(F)cc21 [Compound B340] | 124 | < 500 | 394 | > 3000 | > 10000 | 150 | – | – |
